In US20110039763A1, “TARGETED ANTIMICROBIAL MOIETIES” (C3 JIAN, INC., priority 2009, published 2011):
Entries after “also recorded” stand apart in the source; their conditions may differ. Square brackets hold non-standard residues; d marks the D form. Ends that are not written are not given here. Aib = CC(C)(N)C(=O)O

These substances were tested on microorganisms (assay: Targeting peptide binding to target microorganisms (Tables 3, 10, 12)). Details: microorganism(s) the targeting peptide binds; binding in aqueous buffers varied with peptide solubility, preferably 1x PBS.

Substance | Target(s)
PF-678 (RDRRWTRRDMYDWLESARV; Peptide with targeting and/or antimicrobial activity) | Mycobacteria spp
PF-679 (CRARFIRR; Peptide with targeting and/or antimicrobial activity) | S. mutans; also recorded: E. coli
PF-689 (SAPSG; Peptide with targeting and/or antimicrobial activity) | S. mutans; also recorded: E. coli
PF-701 (PRGAQSGHG; Peptide with targeting and/or antimicrobial activity) | S. mutans
PF-703 (MTTVDNIVGLVIAVALMAFLFAALLFPEKF; Peptide with targeting and/or antimicrobial activity) | Mycobacteria spp
PF-705 (GEEEGTVAD; Peptide with targeting and/or antimicrobial activity) | S. mutans; also recorded: E. coli
PF-706 (LGYGAWIGCGLGLNGFHRID; Peptide with targeting and/or antimicrobial activity) | L. pneumophila
PF-707 (IDPESIVTTNNKQDNVDEQ; Peptide with targeting and/or antimicrobial activity) | S. mutans; also recorded: E. coli
PF-709 (NKKHSPMD; Peptide with targeting and/or antimicrobial activity) | S. mutans
PF-711 (KTAGPTGTIYKTN; Peptide with targeting and/or antimicrobial activity) | S. mutans
PF-712 (QIYRHVHKVQAKSANLRLY; Peptide with targeting and/or antimicrobial activity) | S. mutans; also recorded: E. coli
PF-714 (FVVTQRMLRMYKK; Peptide with targeting and/or antimicrobial activity) | L. pneumophila
PF-716 (HGENHHHKSDEKDNDSSEKKD; Peptide with targeting and/or antimicrobial activity) | S. mutans
PF-717 (PQSEVTFENIYAPKANGGGLYGI; Peptide with targeting and/or antimicrobial activity) | E. coli
PF-720 (SLDMGK; Peptide with targeting and/or antimicrobial activity) | S. mutans
PF-724 (CYRFLTPKRPTRIS; Peptide with targeting and/or antimicrobial activity) | L. pneumophila
PF-727 (AYARCRHDYPFTLGQMQTH; Peptide with targeting and/or antimicrobial activity) | S. mutans; also recorded: E. coli
PF-728 (AIGQEQDRREYYYYSGYPYYY; Peptide with targeting and/or antimicrobial activity) | S. mutans; also recorded: E. coli
PF-731 (RHKLIRLPLSESVFCFLNNPKI; Peptide with targeting and/or antimicrobial activity) | L. pneumophila
PF-732 (DRPSQTTHHTLSSSRITGPS; Peptide with targeting and/or antimicrobial activity) | E. coli

Substance | Target(s)
PF-733 (VISRQMGSEAVLELFIIM; Peptide with targeting and/or antimicrobial activity) | S. mutans; also recorded: E. coli
PF-735 (YDPLFPNDKN; Peptide with targeting and/or antimicrobial activity) | S. mutans; also recorded: E. coli
PF-750 (AESSPAKTTA; Peptide with targeting and/or antimicrobial activity) | M. luteus; also recorded: C. jeikeium
PF-751 (AESSPAQETT; Peptide with targeting and/or antimicrobial activity) | S. epidermidis; also recorded: E. coli; also recorded: C. albicans; also recorded: C. jeikeium
PF-765 (YLYWEVEHKPIIAKRDAYYAQLRKQKEIEEGA; Peptide with targeting and/or antimicrobial activity) | S. epidermidis and M. luteus and E. coli and MRSA and E. faecalis and C. jeikeium
PF-766 (DAYYAQLRKQKEIEEGA; Peptide with targeting and/or antimicrobial activity) | S. epidermidis and M. luteus and C. albicans and MRSA and E. faecalis and C. jeikeium
PF-767 (DGKQGEPVALKPTDN; Peptide with targeting and/or antimicrobial activity) | S. epidermidis and M. luteus and E. coli and MRSA and S. pneumoniae and E. faecalis and C. jeikeium
PF-768 (GFRGGKRGGARG; Peptide with targeting and/or antimicrobial activity) | S. epidermidis; also recorded: S. pneumoniae; also recorded: E. faecalis; also recorded: C. jeikeium
PF-772 (TKESSS; Peptide with targeting and/or antimicrobial activity) | S. epidermidis and C. albicans and MRSA and S. pneumoniae and C. jeikeium
PF-773 (TLKESK; Peptide with targeting and/or antimicrobial activity) | S. epidermidis; also recorded: C. albicans; also recorded: C. jeikeium
PF-777 (PGADGKLAEASAAIARLVRS; Peptide with targeting and/or antimicrobial activity) | Mycobacteria spp.
PF-778 (MNLILTAHGT; Peptide with targeting and/or antimicrobial activity) | Mycobacteria spp.
PF-779 (IYGDFFNFYLCDISLKVNGLQPGGPVRTVKLFGQPTGRCTPQ; Peptide with targeting and/or antimicrobial activity) | Mycobacteria spp.
PF-780 (AVYDALVALAAAEHRAELATRDARAKDTYEKIGVHVVVAA; Peptide with targeting and/or antimicrobial activity) | Mycobacteria spp.
PF-781 (PLVVVNHRRAERSRG; Peptide with targeting and/or antimicrobial activity) | Mycobacteria spp.
PF-782 (TGPRRGIDLTSNRALSEVLDEGLELNSRK; Peptide with targeting and/or antimicrobial activity) | Mycobacteria spp.
PF-783 (FTSEVRGVFTYRVNKAGLITNMRGYWNLDMMTFGNQE; Peptide with targeting and/or antimicrobial activity) | Mycobacteria spp.
PF-784 (MAMTTVDNIVGLVIAVALMAFLFAALLFPEKF; Peptide with targeting and/or antimicrobial activity) | Mycobacteria spp.
PF-785 (MRPQHSPAGKAFVVKKITHEQS; Peptide with targeting and/or antimicrobial activity) | Mycobacteria spp.
PF-786 (LSERERRRLKRGII; Peptide with targeting and/or antimicrobial activity) | Mycobacteria spp.

Substance | Target(s)
PF-787 (MTERQRRALLKQHPEVVSWSDYLEKRKRRTGTAG; Peptide with targeting and/or antimicrobial activity) | Mycobacteria spp.
PF-788 (GLITVFAGTARILQLRRAAKKTHAAALR; Peptide with targeting and/or antimicrobial activity) | Mycobacteria spp.
PF-789 (PRGAQSGHG; Peptide with targeting and/or antimicrobial activity) | Mycobacteria spp.
PF-790 (PAGPDHLDQRDHR; Peptide with targeting and/or antimicrobial activity) | Mycobacteria spp.
PF-791 (IFLTTQNTDYSEHNAA; Peptide with targeting and/or antimicrobial activity) | S. mutans
PF-792 (ALHASGIQAI; Peptide with targeting and/or antimicrobial activity) | S. mutans
PF-793 (YTQ[Aib]NNASAYAMLLTNKDTVP; ends and bridges not checked) | S. mutans
PF-794 (NLYFENQGN; Peptide with targeting and/or antimicrobial activity) | S. mutans
PF-795 (ALHKSGIQVIADWVPDQIYN; Peptide with targeting and/or antimicrobial activity) | S. mutans
PF-796 (YTQSNIPTAYALMLSNKDSI; Peptide with targeting and/or antimicrobial activity) | S. mutans
PF-797 (WYYFDNNGYM; Peptide with targeting and/or antimicrobial activity) | S. mutans
PF-798 (ALHSKGIKVMADWVPDQMYA; Peptide with targeting and/or antimicrobial activity) | S. mutans
PF-799 (YTHYNTALSYALLLTNKSSVP; Peptide with targeting and/or antimicrobial activity) | S. mutans
PF-800 (WYYFDNNGYM; Peptide with targeting and/or antimicrobial activity) | S. mutans
PF-C003 (FCSVDHDVITIAADHVKQGAEA; Peptide with targeting and/or antimicrobial activity) | A. naeslundii; also recorded: P. gingivalis; also recorded: S. mutans
PF-C008 (AQPRRTWLVNFGEVPSPGLTNDGMPDH; Peptide with targeting and/or antimicrobial activity) | A. naeslundii
PF-C034 (HPMPITVRSRKPGPLTAPSEH; Peptide with targeting and/or antimicrobial activity) | S. mutans; also recorded: E. coli
PF-C045 (FREGMGWPLSNEGSPTAPLPKHRNQV; Peptide with targeting and/or antimicrobial activity) | A. naeslundii; also recorded: T. denticola
PF-C050 (QGLARPVLRRIPL; Peptide with targeting and/or antimicrobial activity) | A. naeslundii; also recorded: S. mutans
PF-C063 (SHFRKGD; Peptide with targeting and/or antimicrobial activity) | A. naeslundii; also recorded: F. nucleatum; also recorded: S. mutans
